Source: US12011444B2, “N-substituted indole derivatives as PGE2 receptor modulators” (Idorsia Pharmaceuticals Ltd, priority 2015, dated 2024)

Columns and labels:
PTGER2 (EP2) = PTGER2 (EP2) (Homo sapiens (Human), UniProt P43116); assay: hEP2 b-arrestin assay (PathHunter HEK 293 PTGER2 b-arrestin cells); format: cell-based
From the text: (§1) The assay is using the PathHunter™ HEK 293 PTGER2 and PTGER4 b-arrestin cell lines from DiscoverX. The system is based on the Enzyme Fragment Complementation Technology. Two complementing fragments of the b-galactosidase enzyme are expressed within stably transfected cells. The larger portion of b-gal, termed EA for Enzyme Acceptor, is fused to the C-terminus of b-arrestin 2. The smaller fragment, termed ProLink™ tag, is fused to PTGER2 (EP2) or PTRGER4 (EP4) at the C-terminus. Upon activation, b-arrestin is recruited which forces the interaction of ProLink and EA, allowing complementation of the two fragments of b-gal and the formation of a functional enzyme which is capable of hydrolysing the substrate and generating a chemiluminescent signal.
(§2) 5000 cells per well of a 384 well plate (white with white bottom Greiner 781080) are seeded in 20 ul per well of GM. Plate is incubated at 37° C., 5% C02 for 24 hours.
Plate is pre-incubated 15 minutes at 37° C. Then five microliters of PGE2 (final conc. 5 μM) are transferred into the assay plate. Plate is incubated 120 minutes at 37° C.
(§3) Twelve μl of reagent are transferred to the assay plate and incubate for 1 hour at room temperature in the dark. Luminescence counts are read on a BMG Fluostar Optima reader according to manufacturer's instructions. For each compound concentration calculate of the percentage of activity compared to DMSO control value as average±STDEV. (each concentration is measured in duplicate)

PTRGER4 (EP4) = PTRGER4 (EP4) (Homo sapiens (Human), UniProt P35408); assay: hEP4 b-arrestin assay (PathHunter HEK 293 PTGER4 b-arrestin cells); format: cell-based
From the text: as §1, §2
Plate is pre-incubated 15 minutes at 37° C. Then five microliters of PGE2 (final conc. 20 nM) are transferred into the assay plate. Plate is incubated 120 minutes at 37° C.
as §3, with “average±STDEV.” for “average±STDEV. (each concentration is measured in duplicate)”

[1] = hEP2 b-arrestin assay (values without asterisk)
[2] = hEP4 b-arrestin assay (values without asterisk)
[3] = antagonistic activity on hEP2, mean where measured multiple times
[4] = antagonistic activity on hEP4, mean where measured multiple times

PTGER2 (EP2), sequence (P43116 whole entry, the tested form may be a part): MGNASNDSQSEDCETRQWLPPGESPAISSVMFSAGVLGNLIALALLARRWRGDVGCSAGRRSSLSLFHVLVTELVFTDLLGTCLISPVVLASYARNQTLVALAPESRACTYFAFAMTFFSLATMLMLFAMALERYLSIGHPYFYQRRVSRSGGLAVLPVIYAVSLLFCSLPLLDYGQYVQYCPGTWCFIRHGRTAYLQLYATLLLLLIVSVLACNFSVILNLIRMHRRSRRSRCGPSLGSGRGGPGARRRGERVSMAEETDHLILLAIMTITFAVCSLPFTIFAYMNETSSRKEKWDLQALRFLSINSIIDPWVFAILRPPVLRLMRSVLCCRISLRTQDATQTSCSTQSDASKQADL
PTRGER4 (EP4), sequence (P35408 whole entry, looked up): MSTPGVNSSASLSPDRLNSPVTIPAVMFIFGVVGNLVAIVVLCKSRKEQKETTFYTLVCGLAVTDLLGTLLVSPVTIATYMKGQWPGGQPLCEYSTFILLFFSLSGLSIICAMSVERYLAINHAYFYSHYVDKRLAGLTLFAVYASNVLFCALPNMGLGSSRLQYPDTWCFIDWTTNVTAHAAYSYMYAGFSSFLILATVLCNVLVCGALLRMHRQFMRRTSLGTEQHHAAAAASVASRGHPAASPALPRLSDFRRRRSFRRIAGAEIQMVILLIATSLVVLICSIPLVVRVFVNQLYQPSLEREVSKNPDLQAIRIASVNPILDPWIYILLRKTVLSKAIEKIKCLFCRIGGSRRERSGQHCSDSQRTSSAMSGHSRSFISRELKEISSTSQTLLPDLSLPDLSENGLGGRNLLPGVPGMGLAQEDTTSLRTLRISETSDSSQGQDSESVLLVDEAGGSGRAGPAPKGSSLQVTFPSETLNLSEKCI

Row | IC50 (PTGER2 (EP2); [1]) | IC50 (PTRGER4 (EP4); [2]) | IC50 (PTGER2 (EP2); [3]) | IC50 (PTRGER4 (EP4); [4]) | SMILES
1 | – | – | 53 nM | 953 nM | CCCc1cc(-c2cc(NCCn3c(C)cc4cc(C)cc(Cl)c43)ncn2)ccc1C(=O)O [compound 266]
2 | – | – | 5 nM | 645 nM | CCCc1cc(-c2cc(NCCn3c(C)cc4c(F)ccc(Cl)c43)ncn2)cc(F)c1C(=O)O [compound 340, 4-{6-[2-(7-Chloro-4-fluoro-2-methyl-indol-1-yl)-ethylamino]-pyrimidin-4-yl}-2-fluoro-6-propyl-benzoic acid]
3 | – | – | 113 nM | 123 nM | Cc1ccc(F)c2c1cc(C)n2CCNc1cc(-c2ccc(-c3nnc[nH]3)cc2)ncn1 [compound 99]
4 | – | – | 18 nM | 216 nM | CCc1cc(-c2cc(NCCn3c(C)cc4c(C)ccc(F)c43)ncn2)ccc1C(=O)O [compound 220]
5 | – | – | 9 nM | 71 nM | CCNc1cc(-c2cc(NCCn3c(C)cc4c(C)ccc(F)c43)ncn2)ccc1C(=O)O [compound 245]
6 | – | – | 15 nM | 952 nM | COc1cc(-c2cc(NCCn3c(C)cc4c(C)cccc43)ncn2)ccc1C(=O)O [compound 35, 4-{6-[2-(2,4-Dimethyl-indol-1-yl)-ethylamino]-pyrimidin-4-yl}-2-methoxy-benzoic acid]
7 | 15 nM | 49 nM | – | – | COc1ccc(F)c2c1cc(C#N)n2CCNc1cc(-c2ccc3oc(=O)n(C)c3c2)ncn1 [Example 973, 7-Fluoro-4-methoxy-1-{2-[6-(3-methyl-2-oxo-2,3-dihydro-benzooxazol-5-yl)-pyrimidin-4-ylamino]-ethyl}-1H-indole-2-carbonitrile]
8 | 5 nM | 2 nM | – | – | CCOc1cc(-c2cc(NCCn3c(C#N)cc4c(OC)ccc(F)c43)ncn2)ccc1NCC(=O)O [Example 861, (4-{6-[2-(2-Cyano-7-fluoro-4-methoxy-indol-1-yl)-ethylamino]-pyrimidin-4-yl}-2-ethoxy-phenylamino)-acetic acid]
9 | – | – | 6 nM | 495 nM | CCCc1cc(-c2cc(NCCn3c(C)cc4c(C)cccc43)ncn2)ccc1C(=O)O [compound 120, 4-{6-[2-(2,4-Dimethyl-indol-1-yl)-ethylamino]-pyrimidin-4-yl}-2-propyl-benzoic acid]
10 | – | – | 128 nM | 928 nM | Cc1ccc(F)c2c1cc(C)n2CCNc1cc(-c2cc(Br)c(C(=O)O)cc2F)ncn1 [compound 126]
11 | – | – | 78 nM | 369 nM | Cc1cc(-c2cc(NCCn3c(C)cc4c(C)ccc(F)c43)ncn2)ccc1CO [compound 22]
12 | – | – | 1 nM | 474 nM | Cc1cc2ccccc2n1CCNc1cc(-c2ccc(-c3nnc(N)s3)cc2)ncn1 [compound 363]
13 | 1 nM | 16 nM | – | – | COc1ccc(F)c2c1cc(C#N)n2CCNc1cc(-c2c[nH]c3ncccc23)ncn1 [Example 978, 7-Fluoro-4-methoxy-1-{2-[6-(1H-pyrrolo[2,3-b]pyridin-3-yl)-pyrimidin-4-ylamino]-ethyl}-1H-indole-2-carbonitrile]
14 | 2 nM | 1 nM | – | – | COc1cc(-c2cc(NCCn3c(C#N)cc4c(OC)ccc(F)c43)ncn2)ccc1-c1c[nH]cn1 [Example 818, 7-Fluoro-1-(2-{6-[4-(1H-imidazol-4-yl)-3-methoxy-phenyl]-pyrimidin-4-ylamino}-ethyl)-4-methoxy-1H-indole-2-carbonitrile]
15 | 5 nM | 5 nM | – | – | COc1ccc(F)c2c1cc(C#N)n2CCNc1cc(-c2ccc(-c3ncn(C)c3C)cc2)ncn1 [Example 823, 1-(2-{6-[4-(1,5-Dimethyl-1H-imidazol-4-yl)-phenyl]-pyrimidin-4-ylamino}-ethyl)-7-fluoro-4-methoxy-1H-indole-2-carbonitrile]
16 | – | – | 9 nM | 975 nM | CCc1cc(-c2cc(NCCn3c(C)cc4c(C)cccc43)ncn2)ccc1C(=O)O [compound 26, 4-{6-[2-(2,4-Dimethyl-indol-1-yl)-ethylamino]-pyrimidin-4-yl}-2-ethyl-benzoic acid]
17 | – | – | 2 nM | 22 nM | CCOc1cc(-c2cc(NCCn3c(C)cc4c(OC)cccc43)ncn2)sc1C(=O)O [compound 216]

Row | IC50 (PTGER2 (EP2); [1]) | IC50 (PTRGER4 (EP4); [2]) | IC50 (PTGER2 (EP2); [3]) | IC50 (PTRGER4 (EP4); [4]) | SMILES
18 | 17 nM | 36 nM | – | – | COc1ccc(F)c2c1cc(C)n2CCNc1cc(-c2cc(C(F)(F)F)c(-c3nn[nH]n3)s2)ncn1 [Example 1060, [2-(7-Fluoro-4-methoxy-2-methyl-indol-1-yl)-ethyl]-{6-[5-(2H-tetrazol-5-yl)-4-trifluoromethyl-thiophen-2-yl]-pyrimidin-4-yl}-amine]
19 | – | – | 115 nM | 132 nM | COc1ccc(F)c2c1cc(C)n2CCNc1cc(-c2ccc3nc(C)oc3c2)ncn1 [compound 89]
20 | 89 nM | 177 nM | – | – | COc1ccc(F)c2c1cc(C#N)n2CCNc1cc(-c2ccc(C(F)(F)C(=O)O)cc2)ncn1 [Example 887, (4-{6-[2-(2-Cyano-7-fluoro-4-methoxy-indol-1-yl)-ethylamino]-pyrimidin-4-yl}-phenyl)-difluoro-acetic acid]
21 | – | – | 1 nM | 173 nM | CCNc1cc(-c2cc(NCCn3c(C)cc4c(Cl)cccc43)ncn2)ccc1C(=O)O [compound 212]
22 | – | – | 7 nM | 943 nM | Cc1cc2cccc(F)c2n1CCNc1cc(-c2ccc(C(=O)O)c(CC(C)C)c2)ncn1 [compound 148, 4-{6-[2-(7-Fluoro-2-methyl-indol-1-yl)-ethylamino]-pyrimidin-4-yl}-2-isobutyl-benzoic acid]
23 | 5 nM | 21 nM | – | – | CCSc1cc(-c2cc(NCCn3c(C#N)cc4c(OC)cccc43)ncn2)ccc1C(=O)O [Example 952, 4-{6-[2-(2-Cyano-4-methoxy-indol-1-yl)-ethylamino]-pyrimidin-4-yl}-2-ethylsulfanyl-benzoic acid]
24 | – | – | 21 nM | 494 nM | COc1ccc(F)c2c1cc(C)n2CCNc1cc(-c2ccc(C(N)=O)cc2)ncn1 [compound 42, 4-{6-[2-(7-Fluoro-4-methoxy-2-methyl-indol-1-yl)-ethylamino]-pyrimidin-4-yl}-benzamide]
25 | 13 nM | 94 nM | – | – | CCOc1cc(-c2cc(NCCn3c(C)cc4c(OC)ccc(F)c43)ncn2)ccc1-c1ncco1 [Example 842, [6-(3-Ethoxy-4-oxazol-2-yl-phenyl)-pyrimidin-4-yl]-[2-(7-fluoro-4-methoxy-2-methyl-indol-1-yl)-ethyl]-amine]
26 | 7 nM | 76 nM | – | – | N#Cc1cc2cccc(F)c2n1CCNc1cc(-c2cc(F)c(C(=O)O)s2)ncn1 [Example 901, 5-{6-[2-(2-Cyano-7-fluoro-indol-1-yl)-ethylamino]-pyrimidin-4-yl}-3-fluoro-thiophene-2-carboxylic acid]
27 | – | – | 3 nM | 658 nM | CCCc1cc(-c2cc(NCCn3c(C)cc4c(F)ccc(F)c43)ncn2)ccc1C(=O)O [compound 144, 4-{6-[2-(4,7-Difluoro-2-methyl-indol-1-yl)-ethylamino]-pyrimidin-4-yl}-2-propyl-benzoic acid]
28 | – | – | 7 nM | 230 nM | COc1cccc2c1cc(C)n2CCNc1cc(-c2ccc(-c3cscn3)cc2)ncn1 [compound 98, [2-(4-Methoxy-2-methyl-indol-1-yl)-ethyl]-[6-(4-thiazol-4-yl-phenyl)-pyrimidin-4-yl]-amine]
29 | 24 nM | 221 nM | – | – | N#Cc1c(F)c2ccccc2n1CCNc1cc(-c2cc(F)c(C(=O)O)s2)ncn1 [Example 846, 5-{6-[2-(2-Cyano-3-fluoro-indol-1-yl)-ethylamino]-pyrimidin-4-yl}-3-fluoro-thiophene-2-carboxylic acid]
30 | 3 nM | 20 nM | – | – | CCOc1cc(-c2cc(NCCn3c(C)cc4c(OC)ccc(F)c43)ncn2)ccc1NCC(=O)O [Example 811, (2-Ethoxy-4-{6-[2-(7-fluoro-4-methoxy-2-methyl-indol-1-yl)-ethylamino]-pyrimidin-4-yl}-phenylamino)-acetic acid]
31 | – | – | 96 nM | 288 nM | Cc1cc(-c2cc(NCCn3c(C)cc4c(C)ccc(F)c43)ncn2)ccc1S(N)(=O)=O [compound 135]
32 | – | – | 89 nM | 308 nM | CCC(C)c1cc(-c2cc(NCCn3c(C)cc4c(C)ccc(F)c43)ncn2)ccc1C(=O)O (racemic) [compound 337]
33 | – | – | 84 nM | 543 nM | CCOc1cc(-c2cc(NCCn3c(C)cc4c(OC)c(F)cc(F)c43)ncn2)ccc1C(=O)O [compound 364]
34 | – | – | 383 nM | 429 nM | COc1cccc2c1cc(C)n2CCNc1cc(-c2ccc(Cn3cccn3)c(F)c2)ncn1 [compound 308]

Row | SMILES | IC50 (PTGER2 (EP2); [1]) | IC50 (PTRGER4 (EP4); [2]) | IC50 (PTGER2 (EP2); [3]) | IC50 (PTRGER4 (EP4); [4])
35 | CCCCOc1cc(-c2cc(NCCn3c(C#N)cc4c(OC)ccc(F)c43)ncn2)cc(F)c1C(=O)O [Example 905, 2-Butoxy-4-{6-[2-(2-cyano-7-fluoro-4-methoxy-indol-1-yl)-ethylamino]-pyrimidin-4-yl}-6-fluoro-benzoic acid] | 22 nM | 5 nM | – | –
